Series [1] is described as follows: Compound induced cellular toxicity in HepG2 cells (ATPlite). Format: cell-based. As to conditions: human, three days, ATPlite 1 Step, concentration reducing total ATP levels by 50% relative to no drug controls. The method, then:
At day 3, post seeding cells are treated with ATPlite 1 Step according to the manufacturer's instructions.

Another series deals with 2.2.15 cells. The series is described as follows: Antiviral activity in 2.2.15 cells: reduction of viral product accumulation (qPCR, HBsAg/HBeAg ELISA). It is filed as cell-based, HBV. As to conditions: Hepatitis B virus, 120 h, day 5 post treatment, concentration reducing viral product accumulation in cell lysates or supernatants by 50% relative to no drug controls. The method, then:
2.2.15 cells are passaged upon attaining confluency in DMEM/F12 media in the presence of 10% FBS, Penn/Strep, and 250 ug/mL G418. Novel compounds are 5 fold serially diluted in DMSO and added to 96 well plates containing 35,000 cells/well at a 1:200 dilution so that the final concentration of DMSO is 0.5%. On day 5, post treatment cell lysates and supernatants are harvested for analysis.
Cells are lysed using Agilent Sidestep Lysis buffer, diluted 1:100 and quantified via quantitative real time PCR. Commercially available ELISA kits are used to quantitate the viral proteins HBsAg (Alpco) or HBeAg (US Biological) by following the manufacturer's recommended protocol after diluting samples to match the linear range of their respective assays. Irrespective of readout, compound concentrations that reduce viral product accumulation in the cell lysates or supernatants by 50% relative to no drug controls (EC50) are reported; EC50 ranges are as follows: A<0.1 μM; B 0.1-1 μM; C>1 μM.

Structures are written as SMILES. A value given as a limit tells only on which side of the number the result lay.

In turn, `CC(C)(C)[C@@H]1Cc2c(oc3c(C#N)cccc23)-c2c(F)c(=O)c(C(=O)O)cn21` [Example 53, (S)-6-(tert-butyl)-11-cyano-1-fluoro-2-oxo-6,7-dihydro-2H-benzofuro[2,3-a]quinolizine-3-carboxylic acid] had a CC50 at 3 days in series [1] of more than 25 µM. In the series on 2.2.15 cells, this molecule gave a concentration for a half-maximal effect (EC50) of less than 0.1 µM.
Regarding `CC(C)(C)[C@@H]1Cc2c(oc3c(-c4cccs4)cccc23)-c2c(F)c(=O)c(C(=O)O)cn21` [Example 54, (S)-6-(tert-butyl)-1-fluoro-2-oxo-11-(thiophen-2-yl)-6,7-dihydro-2H-benzofuro[2,3-a]quinolizine-3-carboxylic acid], the 50% cytotoxic concentration (CC50) at 3 days in series [1] was more than 25 µM. In the series with 2.2.15 cells, the EC50 is less than 0.1 µM.
For `Cn1cc(-c2cccc3c4c(oc23)-c2c(F)c(=O)c(C(=O)O)cn2[C@H](C(C)(C)C)C4)cn1` [Example 55, (S)-6-(tert-butyl)-1-fluoro-11-(1-methyl-1H-pyrazol-4-yl)-2-oxo-6,7-dihydro-2H-benzofuro[2,3-a]quinolizine-3-carboxylic acid], in that order: more than 25 µM and less than 0.1 µM.
The molecule `CC(C)(C)[C@@H]1Cc2c(oc3c(-c4ccsc4)cccc23)-c2c(F)c(=O)c(C(=O)O)cn21` [Example 57, (S)-6-(tert-butyl)-1-fluoro-2-oxo-11-(thiophen-3-yl)-6,7-dihydro-2H-benzofuro[2,3-a]quinolizine-3-carboxylic acid] showed a CC50 at 3 days in series [1] of more than 25 µM. The molecule also had an EC50 in the series on 2.2.15 cells of less than 0.1 µM.
With `CC(C)(C)[C@@H]1Cc2c(oc3c(-c4cnco4)cccc23)-c2c(F)c(=O)c(C(=O)O)cn21` [Example 58, (S)-6-(tert-butyl)-1-fluoro-11-(oxazol-5-yl)-2-oxo-6,7-dihydro-2H-benzofuro[2,3-a]quinolizine-3-carboxylic acid], the CC50 at 3 days in series [1] is more than 25 µM. The same molecule had a 50% effective concentration (EC50) in the series with 2.2.15 cells of less than 0.1 µM.
The like results for `Cn1nccc1-c1cccc2c3c(oc12)-c1c(F)c(=O)c(C(=O)O)cn1[C@H](C(C)(C)C)C3` [Example 59, (S)-6-(tert-butyl)-1-fluoro-11-(1-methyl-1H-pyrazol-5-yl)-2-oxo-6,7-dihydro-2H-benzofuro[2,3-a]quinolizine-3-carboxylic acid] were, in that order, more than 25 µM and less than 0.1 µM.
As to `CC(C)(C)[C@@H]1Cc2c(oc3c(-c4nccs4)cccc23)-c2c(F)c(=O)c(C(=O)O)cn21` [Example 61, (S)-6-(tert-butyl)-1-fluoro-2-oxo-11-(thiazol-2-yl)-6,7-dihydro-2H-benzofuro[2,3-a]quinolizine-3-carboxylic acid], in series [1], the CC50 at 3 days is more than 25 µM. Further, the 50% effective concentration (EC50) in the series with 2.2.15 cells was less than 0.1 µM.
Molecule `CC(C)(C)[C@@H]1Cc2c(oc3c(-c4cscn4)cccc23)-c2c(F)c(=O)c(C(=O)O)cn21` [Example 62, (S)-6-(tert-butyl)-1-fluoro-2-oxo-11-(thiazol-4-yl)-6,7-dihydro-2H-benzofuro[2,3-a]quinolizine-3-carboxylic acid] yielded a CC50 at 3 days in series [1] of 10 to 25 µM. This molecule came in with a 50% effective concentration (EC50) in the series on 2.2.15 cells of less than 0.1 µM.
For the molecule `CC(C)(C)[C@@H]1Cc2c(oc3c(-n4cccn4)cccc23)-c2c(F)c(=O)c(C(=O)O)cn21` [Example 63, (S)-6-(tert-butyl)-1-fluoro-2-oxo-11-(1H-pyrazol-1-yl)-6,7-dihydro-2H-benzofuro[2,3-a]quinolizine-3-carboxylic acid], the CC50 at 3 days in series [1] was more than 25 µM. Further, the half-maximal effective concentration (EC50) in the series with 2.2.15 cells was less than 0.1 µM.
Take `Cc1cccc2c3c(oc12)-c1c(F)c(=O)c(C(=O)O)cn1[C@H](C(C)(C)C)C3` [Example 64, (S)-6-(tert-butyl)-1-fluoro-11-methyl-2-oxo-6,7-dihydro-2H-benzofuro[2,3-a]quinolizine-3-carboxylic acid]: the cytotoxic concentration (CC50) at 3 days in series [1] was more than 25 µM. Further, in the series with 2.2.15 cells, the 50% effective concentration (EC50) was less than 0.1 µM.
`CC(C)(C)[C@@H]1Cc2c(oc3c(C4CC4)cccc23)-c2c(F)c(=O)c(C(=O)O)cn21` [Example 65, (S)-6-(tert-butyl)-11-cyclopropyl-1-fluoro-2-oxo-6,7-dihydro-2H-benzofuro[2,3-a]quinolizine-3-carboxylic acid] had a cytotoxic concentration (CC50) at 3 days in series [1] of more than 25 µM. The same molecule had a concentration giving a half-maximal response (EC50) in the series with 2.2.15 cells of less than 0.1 µM.
Turning to `CC(C)[C@@H]1Cc2c(oc3c(-c4ccoc4)cccc23)-c2cc(=O)c(C(=O)O)cn21` [Example 66, (S)-11-(furan-3-yl)-6-isopropyl-2-oxo-6,7-dihydro-2H-benzofuro[2,3-a]quinolizine-3-carboxylic acid], in series [1], the CC50 at 3 days is 10 to 25 µM. In the series on 2.2.15 cells, this molecule had an EC50 of less than 0.1 µM.
With `CC(C)[C@@H]1Cc2c(oc3c(-c4ccco4)cccc23)-c2cc(=O)c(C(=O)O)cn21` [Example 67, (S)-11-(furan-2-yl)-6-isopropyl-2-oxo-6,7-dihydro-2H-benzofuro[2,3-a]quinolizine-3-carboxylic acid], the 50% cytotoxic concentration (CC50) at 3 days in series [1] was in the range of 10 to 25 µM. The same molecule came in with a concentration giving a half-maximal response (EC50) in the series with 2.2.15 cells of less than 0.1 µM.
Regarding `CC(C)[C@@H]1Cc2c(oc3cc(OC(F)F)ccc23)-c2cc(=O)c(C(=O)O)cn21` [Example 68, (S)-10-(difluoromethoxy)-6-isopropyl-2-oxo-6,7-dihydro-2H-benzofuro[2,3-a]quinolizine-3-carboxylic acid], the half-maximal cytotoxic concentration (CC50) at 3 days in series [1] was less than 10 µM. Further, the EC50 with 2.2.15 cells was less than 0.1 µM.
In series [1], `CC(C)[C@@H]1Cc2c(oc3cc(C#N)ccc23)-c2cc(=O)c(C(=O)O)cn21` [Example 69, (S)-10-cyano-6-isopropyl-2-oxo-6,7-dihydro-2H-benzofuro[2,3-a]quinolizine-3-carboxylic acid] displayed a CC50 at 3 days of more than 25 µM. The molecule also came in with an EC50 with 2.2.15 cells of less than 0.1 µM.
The molecule `CC(C)[C@@H]1Cc2c(oc3c(-c4cnsc4)cccc23)-c2cc(=O)c(C(=O)O)cn21` [Example 70, (S)-6-isopropyl-11-(isothiazol-4-yl)-2-oxo-6,7-dihydro-2H-benzofuro[2,3-a]quinolizine-3-carboxylic acid] displayed a half-maximal cytotoxic concentration (CC50) at 3 days in series [1] of more than 25 µM. Moreover, in the series on 2.2.15 cells, the half-maximal effective concentration (EC50) was less than 0.1 µM.
As for `CC(C)[C@@H]1Cc2c(oc3c(N4CCC(F)(F)C4)cccc23)-c2cc(=O)c(C(=O)O)cn21` [Example 71], the CC50 at 3 days in series [1] is less than 10 µM. Moreover, in the series on 2.2.15 cells, the half-maximal effective concentration (EC50) was less than 0.1 µM.
The like results for `CC(C)[C@@H]1Cc2c(oc3cc(-n4cccn4)ccc23)-c2cc(=O)c(C(=O)O)cn21` [Example 72, (S)-6-isopropyl-2-oxo-10-(1H-pyrazol-1-yl)-6,7-dihydro-2H-benzofuro[2,3-a]quinolizine-3-carboxylic acid] were, in that order, less than 10 µM and less than 0.1 µM.
The molecule `Cc1ccc2c3c(oc2c1)-c1cc(=O)c(C(=O)O)cn1[C@H](C(C)C)C3` [Example 73, (S)-6-isopropyl-10-methyl-2-oxo-6,7-dihydro-2H-benzofuro[2,3-a]quinolizine-3-carboxylic acid] registered a half-maximal cytotoxic concentration (CC50) at 3 days in series [1] of more than 25 µM. In the series on 2.2.15 cells, this molecule displayed a concentration giving a half-maximal response (EC50) of less than 0.1 µM.
`CC(C)[C@@H]1Cc2c(oc3cc(C4CC4)ccc23)-c2cc(=O)c(C(=O)O)cn21` [Example 74, (S)-10-cyclopropyl-6-isopropyl-2-oxo-6,7-dihydro-2H-benzofuro[2,3-a]quinolizine-3-carboxylic acid] yielded a cytotoxic concentration (CC50) at 3 days in series [1] of 10 to 25 µM. In the series on 2.2.15 cells, this molecule gave a concentration giving a half-maximal response (EC50) of less than 0.1 µM.
The like results for `CC(C)[C@@H]1Cc2c(oc3cc(-c4ccsc4)ccc23)-c2cc(=O)c(C(=O)O)cn21` [Example 76, (S)-6-isopropyl-2-oxo-10-(thiophen-3-yl)-6,7-dihydro-2H-benzofuro[2,3-a]quinolizine-3-carboxylic acid] were, in that order, more than 25 µM and less than 0.1 µM.
The molecule `CC(C)[C@@H]1Cc2c(oc3c(OC(F)F)cccc23)-c2cc(=O)c(C(=O)O)cn21` [Example 77, (S)-11-(difluoromethoxy)-6-isopropyl-2-oxo-6,7-dihydro-2H-benzofuro[2,3-a]quinolizine-3-carboxylic acid] yielded a CC50 at 3 days in series [1] of more than 25 µM. The same molecule displayed an EC50 in the series on 2.2.15 cells of less than 0.1 µM.
As for `CC(C)[C@@H]1Cc2c(oc3c(C#N)cccc23)-c2cc(=O)c(C(=O)O)cn21` [Example 78, (S)-11-cyano-6-isopropyl-2-oxo-6,7-dihydro-2H-benzofuro[2,3-a]quinolizine-3-carboxylic acid], the CC50 at 3 days in series [1] was more than 25 µM. For the same molecule, the EC50 in the series with 2.2.15 cells was less than 0.1 µM.
Take `CC(C)[C@@H]1Cc2c(oc3c(-c4cccs4)cccc23)-c2cc(=O)c(C(=O)O)cn21` [Example 79, (S)-6-isopropyl-2-oxo-11-(thiophen-2-yl)-6,7-dihydro-2H-benzofuro[2,3-a]quinolizine-3-carboxylic acid]: in series [1], the 50% cytotoxic concentration (CC50) at 3 days is less than 10 µM. In addition, in the series on 2.2.15 cells, the 50% effective concentration (EC50) was less than 0.1 µM.
Consider `CC(C)[C@@H]1Cc2c(oc3c(-c4ccsc4)cccc23)-c2cc(=O)c(C(=O)O)cn21` [Example 80, (S)-6-isopropyl-2-oxo-11-(thiophen-3-yl)-6,7-dihydro-2H-benzofuro[2,3-a]quinolizine-3-carboxylic acid], for which the 50% cytotoxic concentration (CC50) at 3 days in series [1] is less than 10 µM. The same molecule showed a half-maximal effective concentration (EC50) with 2.2.15 cells of less than 0.1 µM.
The molecule `CC(C)[C@@H]1Cc2c(oc3c(-n4cccn4)cccc23)-c2cc(=O)c(C(=O)O)cn21` [Example 81, (S)-6-isopropyl-2-oxo-11-(1H-pyrazol-1-yl)-6,7-dihydro-2H-benzofuro[2,3-a]quinolizine-3-carboxylic acid] came in with a CC50 at 3 days in series [1] of more than 25 µM. This molecule also returned an EC50 with 2.2.15 cells of less than 0.1 µM.
Molecule `Cc1cccc2c3c(oc12)-c1cc(=O)c(C(=O)O)cn1[C@H](C(C)C)C3` [Example 82, (S)-6-isopropyl-11-methyl-2-oxo-6,7-dihydro-2H-benzofuro[2,3-a]quinolizine-3-carboxylic acid] gave a CC50 at 3 days in series [1] of more than 25 µM. This molecule displayed an EC50 in the series with 2.2.15 cells of less than 0.1 µM.

These data come from US10865211B2 (ENANTA PHARMACEUTICALS, INC, priority 2018, dated 2020).
